Literature values, collected in patent publication US5043321A, “Adrenocorticotropin release inhibiting factor” (Center for Innovative Technology, priority 1988, dated 1991).
No end group written: not given here.

How the values were obtained:
[1] = test system: hemorrhage induced corticosterone secretion; settings: Hattori et al
[2] = test system: rat anterior pituitary gland; settings: Okajima et al

alpha-hANP: alpha-hANP (presumably ANF[1-28]) used by Hattori et al (SLRRSSCFGGRMDRIGAQSGLGCNSFRY; ends and bridges not checked; cysteine pairing not given here; UniProt P01160 124-151, looked up)
effect on hemorrhage induced corticosterone secretion in vivo [1]: no effect
effect on plasma ACTH ([1]; preliminary study): inhibition of plasma ACTH that was not dose dependent

delta sleep inducing peptide [DSIP]
most effective concentration for inhibition of ACTH secretion [2]: 10 nM
effect on CRF induced ACTH secretion ([2]; rat anterior pituitary gland in vitro): inhibits CRF induced ACTH secretion
